Assays:
[1] = system: PD-1; test: Immunofluorescence densitometry of PDCD-1 (PD-1) expression in human macrophage-like THP-1 cells; format: cell-based; conditions: for percent increase of PDCD-1 expression: 24 hours at 37° C., compared to controls; for effect on PDCD-1 expression (in words): all concentrations tested, relative to control
Experimental: In the present study, human macrophage-like THP-1 cells were used to determine the effects of active agents.
Immunofluorescence studies were utilized to explore the effects of an active composition including Type-A polymers on PD-L1 and PD-1 proteins. Doubly linked procyanidin type-A polymers (3% by weight) in a dried extract of bark from C. burmanni was prepared as described (Anderson et al., J. Agric. Food Chem. 2004; 52:65-70), or provided by IN Ingredients Inc. (formerly Integrity Nutraceuticals, Columbia, Tenn., USA) as CINNULIN PF. The dried extract composition was solvated in DMSO and stored at −20° C. until use. The antibodies (anti-PD-L1, anti-PD-1) were all obtained from Santa Cruz Biotech. All other reagents used were of the highest grade available in commercial products.
(§1) Human monocytic THP-1 cells were purchased from ATCC, Manassas, Va. and were maintained in RPMI culture medium supplemented with 10% heat inactivated fetal bovine serum, 10 mM Hepes, 0.1 mM MEM non-essential amino acids, 1 mM sodium pyruvate, and […] penicillin/streptomycin in an atmosphere containing 5% CO2 and 95% air at 37° C. THP-1 monocytes were differentiated in macrophages by 48 hour incubation with phorbol 12-myristate 13-acetate (PMA, Sigma, P8139) in RPMI media at a concentration of 10 ng/mL. Cells were incubated with or without the treatment compounds at dosages indicated below at 37° C. for 24 hours. In certain treatment with LPS studies, the cells were incubated in fresh F-12 K medium supplemented with 10 μg/mL LPS and the type-A polymers at a concentration (from 3% extract) of 0 μg/ml, 5 μg/ml, 10 μg/ml, 25 μg/ml, or 50 μg/ml for 24 h at 37° C. In other treatment with LPS studies, the cells were incubated in fresh F-12 K medium supplemented with 10 μg/mL LPS and cinnamtannin D-1 at a concentration 2.5 μg/ml, 5 μg/ml, 10 μg/ml or 25 μg/ml for 24 h at 37° C.
(§2) Cells were rinsed with ice-cold PBS and fixed with 4% paraformaldehyde for 10 min at room temperature, followed by permeabilization with 0.3% Triton x-100 for 10 min. After being washed with PBS three times, cells were incubated for 1 h in PBS containing 10% normal goat serum blocking solution. The cells were subjected to immunofluorescence staining with the specific antibodies (human macrophage-like THP-1 cells analyzed for PD-1 (Santa Cruz Biotech)) overnight at 4° C. The cells were then washed with cold PBS three times for 3 min each, and incubated with Alexa-labeled secondary antibodies (Invitrogen) at room temperature for 1 h. The cells were examined by fluorescence microscopy (a Nikon TE2000-S microscope, Nikon, Tokyo, Japan). For cell counts, five to ten random fields with approximately similar density of cells in each field were selected for analysis in each plate. Fluorescence intensities (with pixel values exceeding five times the standard deviation of the background) from these images were semi-quantitatively analyzed by densitometry (ImageJ software, NIH Image).

[2] = system: PD-1; test: as above; format: cell-based; conditions: 20 μg/ml, 24 hours at 37° C., compared to controls
[3] = system: PD-L1; test: Immunofluorescence densitometry of PD-L1 expression in rat C6 glioma cells; format: cell-based; conditions: for percent inhibition of PD-L1 expression: 24 h, compared to controls; for effect on PD-L1 expression (in words): all concentrations tested
Experimental: (§3) Immunofluorescence studies were utilized to explore the effects of an active composition including Type-A polymers on PD-L1 proteins. Purified cinnamtannin B1 and cinnamtannin D1 are obtained from Planta Analytica (New Milford, Conn.). A water extract of cinnamon with at least 3% by weight type-A polymers was obtained from IN Ingredients sold as CINNULIN PF. Each dried material was solvated in DMSO and stored at −20° C. until use. The antibodies (anti-PD-L1) were all obtained from Santa Cruz Biotech. All other reagents used were of the highest grade available in commercial products.
(§4) C6 glioma cells (CCL-107) were purchased from American Type Culture Collection (ATCC; Manassas, Va.). Cell cultures were grown in F-12 K medium (Gibco/Invitrogen) supplemented with 10% horse serum and 2% fetal bovine serum and maintained in a humidified atmosphere containing 5% CO2 and 95% air at 37° C. Cultures were grown to 85% confluency in 75 mm flasks, and cells were subcultured by trypsinization of subconfluent cultures using 0.05% trypsin with EDTA. C6 glioma cells were seeded at a density of 0.5×10^6 cells per 35 mm dish, and cultured for two days. Cells were grown to confluence during the experimental period. Three studies were performed: 1) no other treatment of the cells; 2) treatment with LPS (10 μg/mL); and 3) treatment with TNF-α (10 ng/mL). In some studies, cells were incubated in fresh F-12K medium supplemented with either cinnamtannin D1 (at a concentration of 0 μg/ml, 5 μg/ml, 10 μg/ml, 20 μg/ml, 25 μg/ml, or 50 μg/ml) or cinnamtannin B1 (at a concentration of 0 μg/ml, 5 μg/ml, 10 μg/ml, 20 μg/ml, 25 μg/ml, or 50 μg/ml) for 24 h at 37° C. In certain treatment with LPS studies, the cells were incubated in fresh F-12 K medium supplemented with 10 μg/mL LPS or incubated in fresh F-12 K medium supplemented with 10 μg/mL LPS and cinnamtannin D1 at a concentration 10 μg/ml or 50 μg/ml (5 μg/ml and 25 μg/ml were not tested) for 24 h at 37° C. In certain treatment with TNF-α studies, the cells were incubated in fresh FK-12 medium supplemented with 10 ng/mL TNF-α and cinnamtannin D1 at a concentration 10 μg/ml, 20 μg/ml or 50 μg/ml (5 μg/ml was not tested) for 24 h at 37° C.
as §2, with “(Rat C6 glioma cells studied for PD-L1 (Santa Cruz Biotech); human” for “(human”

[4] = system: PD-L1; test: TNF-α-induced overexpression of PD-L1 in rat C6 glioma cells (immunofluorescence densitometry); format: cell-based; conditions: TNF-α 10 ng/ml; for percent inhibition of TNF-α-induced overexpression of PD-L1: 24 h, rat C6 glioma cells
Experimental: as §3
as §4, with “In certain treatment with TNF-α studies, the cells were incubated in fresh FK-12 medium supplemented with 10 ng/mL TNF-α and cinnamtannin D1 at a concentration 10 μg/ml, 20 μg/ml or 50 μg/ml (5 μg/ml was not tested) for 24 h at 37° C.” left out
(§5) Cells were rinsed with ice-cold PBS and fixed with 4% paraformaldehyde for 10 min at room temperature, followed by permeabilization with 0.3% Triton x-100 for 10 min. […] The cells were subjected to immunofluorescence staining with the specific antibodies (Rat C6 glioma cells studied for PD-L1 (Santa Cruz Biotech); human macrophage-like THP-1 cells analyzed for PD-1 (Santa Cruz Biotech)) overnight at 4° C. […] The cells were examined by fluorescence microscopy (a Nikon TE2000-S microscope, Nikon, Tokyo, Japan). […] Fluorescence intensities (with pixel values exceeding five times the standard deviation of the background) from these images were semi-quantitatively analyzed by densitometry (ImageJ software, NIH Image).

[5] = system: PD-1; test: Immunofluorescence densitometry of LPS-induced PDCD-1 down expression in human macrophage-like THP-1 cells; format: cell-based; conditions: LPS 10 μg/ml; for percent inhibition of LPS-induced PDCD-1 down expression: 24 h
Experimental: as §1, §2

[6] = system: PD-L1; test: LPS-induced overexpression of PD-L1 in rat C6 glioma cells (immunofluorescence densitometry); format: cell-based; conditions: LPS 10 μg/ml; for percent inhibition of LPS-induced overexpression of PD-L1: 24 h, rat C6 glioma cells
Experimental: as §3
C6 glioma cells (CCL-107) were purchased from American Type Culture Collection (ATCC; Manassas, Va.). Cell cultures were grown in F-12 K medium (Gibco/Invitrogen) supplemented with 10% horse serum and 2% fetal bovine serum and maintained in a humidified atmosphere containing 5% CO2 and 95% air at 37° C. Cultures were grown to 85% confluency in 75 mm flasks, and cells were subcultured by trypsinization of subconfluent cultures using 0.05% trypsin with EDTA. C6 glioma cells were seeded at a density of 0.5×10^6 cells per 35 mm dish, and cultured for two days. Cells were grown to confluence during the experimental period. Three studies were performed: 1) no other treatment of the cells; 2) treatment with LPS (10 μg/mL); and 3) treatment with TNF-α (10 ng/mL). […]
as §5

[7] = system: PD-L1; conditions: treatment for metastatic melanoma (Laubli et al. 2015); cited from earlier work

Row | Compound | percent increase of PDCD-1 expression ([1]; 2.5 μg/ml) | percent increase of PDCD-1 expression ([1]; 5 μg/ml) | percent increase of PDCD-1 expression ([1]; 10 μg/ml) | effect on PDCD-1 expression (in words) [1] | percent increase of PDCD-1 expression [2] | percent inhibition of PD-L1 expression ([3]; 5 μg/ml) | percent inhibition of PD-L1 expression ([3]; 10 μg/ml) | percent inhibition of PD-L1 expression ([3]; 25 μg/ml) | percent inhibition of PD-L1 expression ([3]; 50 μg/ml) | effect on PD-L1 expression (in words) [3] | percent increase of PDCD-1 expression ([1]; 50 μg/ml) | further results
1 | Oc1cc(O)c2c(c1)O[C@@]1(c3ccc(O)c(O)c3)Oc3cc(O)c4c(c3[C@@H]2C1O)OC(c1ccc(O)c(O)c1)[C@H](O)C4c1c(O)cc(O)c2c1O[C@H](c1ccc(O)c(O)c1)[C@H](O)C2 (some centres unmarked) [cinnamtannin B-1, cinnamtannin B1] | 21% | 42% | 83% | significantly enhanced | 62% | 35.7% | 60.8% | 54.9% | 41.9% | significantly inhibited | – | –
2 | Oc1cc(O)c2c(c1)O[C@@]1(c3ccc(O)c(O)c3)Oc3cc(O)c4c(c3[C@@H]2[C@H]1O)O[C@H](c1ccc(O)c(O)c1)[C@H](O)[C@H]4c1c(O)cc(O)c2c1O[C@H](c1ccc(O)c(O)c1)[C@@H](O)C2 [cinnamtannin D-1, (2R,3R,4S,8S,14R, 15R)-2,8-bis(3,4-dihydroxyphenyl)-4-[(2R,3S)-2-(3,4-dihydroxyphenyl)-3,5,7-trihydroxy-3,4-dihydro-2H-1-benzopyran-8-yl]-3,4-dihydro-2H,8H,14H-8,14-methano-1,7,9-trioxabenzo[6,7]cycloocta[1,2-a]naphthalene-3,5,11,13,15-pentol] | 18% | 45% | 87% | significantly enhanced | 71% | 39.9% | 66.8% | 58.1% | 43.6% | significantly inhibited | – | percent inhibition of TNF-α-induced overexpression of PD-L1 ([4]; 10 μg/ml): 32.0%; percent inhibition of TNF-α-induced overexpression of PD-L1 ([4]; 20 μg/ml): 42.2%; percent inhibition of TNF-α-induced overexpression of PD-L1 ([4]; 50 μg/ml): 43.9%; effect on TNF-α-induced overexpression of PD-L1 (in words) ([4]; all concentrations tested (10, 20, 50 μg/ml)): significantly inhibited; percent inhibition of LPS-induced PDCD-1 down expression ([5]; 2.5 μg/ml): 42%; percent inhibition of LPS-induced PDCD-1 down expression ([5]; 5 μg/ml): 98%; percent inhibition of LPS-induced PDCD-1 down expression ([5]; 10 μg/ml): 81%; percent inhibition of LPS-induced PDCD-1 down expression ([5]; 25 μg/ml): 48%; effect on LPS-induced PD-1 down-regulation (in words) ([5]; all concentrations tested): significantly improved; percent inhibition of LPS-induced overexpression of PD-L1 ([6]; 10 μg/ml): 48.9%; percent inhibition of LPS-induced overexpression of PD-L1 ([6]; 50 μg/ml): 53.0%; effect on LPS-induced overexpression of PD-L1 (in words) ([6]; all concentrations tested): significantly inhibited
3 | O=C(O)c1cc(O)c(O)c(O)c1 [garlic acid] | – | – | 47% | significantly enhanced | 71% | – | – | – | – | – | 52% | –
4 | O=c1c(O)c(-c2ccc(O)c(O)c2)oc2cc(O)cc(O)c12 [quercetin] | – | – | 33% | significantly enhanced | 78% | – | – | – | – | – | 57% | –
5 | C[C@@H]1O[C@@H](OC[C@H]2O[C@@H](Oc3c(-c4ccc(O)c(O)c4)oc4cc(O)cc(O)c4c3=O)[C@H](O)[C@@H](O)[C@@H]2O)[C@H](O)[C@H](O)[C@H]1O [rutin] | – | – | 17% | – | 48% | – | – | – | – | – | 43% | –
6 | pembrolizumab: antibody therapeutic cited for targeted inhibition of PD-L1 with cardiac side effect | – | – | – | – | – | – | – | – | – | – | – | cardiac side effect associated with treatment [7]: acute heart failure due to autoimmune myocarditis
